# Patent US9157104B2, “Method to improve phosphate solubilization in plants” (Consiglio Nazionale delle Ricerche, priority 2009, dated 2015)
# What was measured:
# [1] = tested on: pho operon genes in S. meliloti cells; test: Quantitative RT-PCR analysis of pho operon genes; type: cell-based; conditions: for expression level of all five pho genes (RT-PCR): P-starved conditions, vs control 1021
# Method: FIG. S1. Quantitative RT-PCR analysis of pho operon genes in S. meliloti cells under P-sufficient conditions (13 mM K-phosphate). The relative expression level was >1 for genes more highly expressed in RD64 and in 1021 cells treated for 3 hours with 0.5 mM IAA, Ind, Trp, ICA and 2,4-D. The relative expression level was <1 for genes more highly expressed in 1021 cells (control). Error bars represent the standard deviation from three independent biological experiments.
# FIG. 1. Quantitative RT-PCR analysis of pho operon genes expression in S. meliloti cells under P-starving conditions. The relative expression level was >1 for genes more highly expressed in RD64 and in 1021 cells treated for 3 hours with 0.5 mM IAA, Ind, Trp, ICA and 2,4-D. The relative expression level was <1 for genes more highly expressed in 1021 cells (control). Error bars represent the standard deviation from five independent biological experiments (p<0.05).
# Total RNA from P-sufficient and P-starved cells was isolated as previously described (5). cDNA were synthesized with the StrataScript™ reverse transcription reagents (Stratagene) and random hexamers as primers. Quantitative PCR was performed with the Power SYBR PCR Master Mix (Applied Biosystems). Reactions were run on the iCycler iQ (Bio-Rad). The thermo cycling condition were: 15 min at 95° C., 40 cycles of denaturation at 95° C. for 20 s, annealing (20 s) and extension (35 s) at 72° C. Specific primer pairs, designed using the Primer3 software, are shown.
# smc02641 and smc00128 were used as housekeeping genes for data normalization in the comparative Ct method as previously described (8). Phosphatase Activity
# acid phosphatase = test: Acid phosphatase activity under P-starved conditions; type: cell-based, S. meliloti; conditions: phosphate starvation; vs 1021 cells; compounds 0.5 mM, 3 hours at 30° C.
# alkaline phosphatase = conditions: phosphate starvation; vs 1021 cells; compounds 0.5 mM, 3 hours at 30° C.
# Method: Acid (A) and alkaline (B) phosphatase activity in S. meliloti cells under P-starved conditions. Log-phase cells grown in a MOPS-buffered minimal medium (starting P concentration=13 mM) were washed and then resuspended in the same medium containing no added P (1021 and RD64 strains) and 0.5 mM IAA, Trp or Ind (1021 strain). Treatments were performed for 3 hours at 30° C.
# Alkaline and acid phophatase enzymes under P-limiting conditions were assayed as previously reported (16). Units are reported as nanomoles per minute per milligram of protein. Protein concentrations were determined by the Bradford's assay.
# S. meliloti 1021 = test: Microarray gene expression of 1021 cells treated with 0.5 mM compound; conditions: P-sufficient (13 mM);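 also: cells were harvested 3 h after the start of each treatment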
# Method: For P starvation experiments, cells of 1021 wild-type and RD64 strains were grown at 30° C. to mid exponential phase (OD600=0.6) in RMM broth containing 1% (w/v) mannitol as carbon source and 13 mM P, washed with RMM containing 0 P, resuspended in the same medium and then divided into three cultures. No P (−P), 1.0 mM P (P-starved cells) or 13 mM P (+P cells also named P-sufficient cells) was added into the three cultures, respectively. The P-starved and P-sufficient 1021 wild type cells were treated for 3.0 hours with 0.5 mM IAA. […] To rule out that this bacteria could be partially starved for Trp, RD64 cells were also treated with 0.5 mM Trp and used for microarrays and RT-PCR analyses. […] After 3 hours of each treatment, cell batches were collected, freezed and stored at −80° C. for use in experiments.
# [2] = 1021 + 0.5 mM Tryptophan vs untreated 1021
# [3] = 1021 + 0.5 mM Indole vs untreated 1021
structure (smiles),measurement,setting,value
"N[C@@H](Cc1c[nH]c2ccccc12)C(=O)O [Tryptophan, tryptophan]",expression of pho genes in RD64 cells after addition of compound,"[1]; 0.5 mM added to RD64 cells, vs untreated RD64 cells, data not shown",unaffected or slightly reduced
same,expression level of all five pho genes (RT-PCR),"[1]; compounds 0.5 mM, 3 hours",only slightly induced or unchanged
same,phoB regulatory gene expression (qRT-PCR),"[1]; P-sufficient (13 mM K-phosphate), vs untreated 1021 cells, compounds 0.5 mM, 3 hours",unaffected
same,acid phosphatase activity,acid phosphatase,"unaffected, or only slightly increased"
same,alkaline phosphatase activity,alkaline phosphatase,"unaffected, or only slightly increased"
same,M (log2 ratio of intensities) SMa0707 sma0707,S. meliloti 1021; [2],0.9084
same,M (log2 ratio of intensities) SMa0711 sma0711,S. meliloti 1021; [2],0.8863
same,M (log2 ratio of intensities) SMa1007 sma1007,S. meliloti 1021; [2],0.9801
same,M (log2 ratio of intensities) SMa1073 sma1073,S. meliloti 1021; [2],0.7423
same,M (log2 ratio of intensities) SMa1087 sma1087,S. meliloti 1021; [2],0.751
same,M (log2 ratio of intensities) SMa1118 hspC2,S. meliloti 1021; [2],0.8663
same,M (log2 ratio of intensities) SMa1128 degP4,S. meliloti 1021; [2],1.449
same,M (log2 ratio of intensities) SMa1321 virB1,S. meliloti 1021; [2],4.445
same,M (log2 ratio of intensities) SMa2145 sma2145,S. meliloti 1021; [2],0.9145
same,M (log2 ratio of intensities) SMa2189 sma2189,S. meliloti 1021; [2],0.993
same,M (log2 ratio of intensities) SMb20585 ggt,S. meliloti 1021; [2],1.09
same,M (log2 ratio of intensities) SMb20672 smb20672,S. meliloti 1021; [2],1.815
same,M (log2 ratio of intensities) SMb20984 nirB 4,S. meliloti 1021; [2],−1.11
same,M (log2 ratio of intensities) SMb21566 groEL5,S. meliloti 1021; [2],−1.021
same,M (log2 ratio of intensities) SMc00155 aroF,S. meliloti 1021; [2],−1.565
same,M (log2 ratio of intensities) SMc00182 smc00182,S. meliloti 1021; [2],−1.097
same,M (log2 ratio of intensities) SMc01169 ald,S. meliloti 1021; [2],0.7379
same,M (log2 ratio of intensities) SMc01293 rplR 3,S. meliloti 1021; [2],−0.7637
same,M (log2 ratio of intensities) SMc01311 tufA,S. meliloti 1021; [2],−0.7229
same,M (log2 ratio of intensities) SMc01313 rpsG,S. meliloti 1021; [2],−0.7518
same,M (log2 ratio of intensities) SMc01314 rpsL,S. meliloti 1021; [2],−0.7349
same,M (log2 ratio of intensities) SMc01636 smc01636,S. meliloti 1021; [2],−0.9473
same,M (log2 ratio of intensities) SMc02507 sitC,S. meliloti 1021; [2],1.133
same,M (log2 ratio of intensities) SMc03253 smc03253,S. meliloti 1021; [2],2.689
same,M (log2 ratio of intensities) SMc04140 smc04140,S. meliloti 1021; [2],2.032
same,M (log2 ratio of intensities) SMc04141 gst9,S. meliloti 1021; [2],1.581
same,M (log2 ratio of intensities) SMc04147 smc04147,S. meliloti 1021; [2],0.8262
same,M (log2 ratio of intensities) SMc04434 rpmH,S. meliloti 1021; [2],−0.7758
same,pho genes among those significantly affected (microarray),S. meliloti 1021; 1021 + 0.5 mM compound vs untreated 1021,did not find any pho genes
"c1ccc2[nH]ccc2c1 [Indole, indole]",expression level of all five pho genes (RT-PCR),"[1]; compounds 0.5 mM, 3 hours",only slightly induced or unchanged
same,acid phosphatase activity,acid phosphatase,"unaffected, or only slightly increased"
same,alkaline phosphatase activity,alkaline phosphatase,"unaffected, or only slightly increased"
same,M (log2 ratio of intensities) SMa1077 nex18,S. meliloti 1021; [3],0.7413
same,M (log2 ratio of intensities) SMa1087 sma1087,S. meliloti 1021; [3],0.7199
same,M (log2 ratio of intensities) SMa1128 degP4,S. meliloti 1021; [3],1.152
same,M (log2 ratio of intensities) SMa1329 sma1329,S. meliloti 1021; [3],1.658
same,M (log2 ratio of intensities) SMb21177 phoC,S. meliloti 1021; [3],1.282
same,M (log2 ratio of intensities) SMb21183 htpG,S. meliloti 1021; [3],0.9544
same,M (log2 ratio of intensities) SMc00182 smc00182,S. meliloti 1021; [3],−0.9429
same,M (log2 ratio of intensities) SMc00335 rpsA,S. meliloti 1021; [3],−0.7083
same,M (log2 ratio of intensities) SMc00364 rplT,S. meliloti 1021; [3],−1.373
same,M (log2 ratio of intensities) SMc00383 gst3,S. meliloti 1021; [3],−0.7478
same,M (log2 ratio of intensities) SMc01106 smc01106,S. meliloti 1021; [3],1.513
same,M (log2 ratio of intensities) SMc01291 rpmD,S. meliloti 1021; [3],−1.485
same,M (log2 ratio of intensities) SMc01308 rplD,S. meliloti 1021; [3],−1.252
same,M (log2 ratio of intensities) SMc01311 tufA,S. meliloti 1021; [3],−0.711
same,M (log2 ratio of intensities) SMc01312 fusA1,S. meliloti 1021; [3],0.9128
same,M (log2 ratio of intensities) SMc01318 rplL,S. meliloti 1021; [3],−0.7037
same,M (log2 ratio of intensities) SMc01946 livK,S. meliloti 1021; [3],−1.077
same,M (log2 ratio of intensities) SMc02501 atpD,S. meliloti 1021; [3],−1.405
same,M (log2 ratio of intensities) SMc02857 dnaK,S. meliloti 1021; [3],0.7321
same,M (log2 ratio of intensities) SMc03159 smc03159,S. meliloti 1021; [3],−0.938
same,M (log2 ratio of intensities) SMc03167 smc03167,S. meliloti 1021; [3],0.7656
same,M (log2 ratio of intensities) SMc03253 smc03253,S. meliloti 1021; [3],1.951
same,M (log2 ratio of intensities) SMc03829 smc03829,S. meliloti 1021; [3],0.8604
same,M (log2 ratio of intensities) SMc04040 ibpA,S. meliloti 1021; [3],2.449
same,M (log2 ratio of intensities) SMc04087 smc04087,S. meliloti 1021; [3],1.944
same,M (log2 ratio of intensities) SMc04114 pilA1,S. meliloti 1021; [3],−1.888
same,M (log2 ratio of intensities) SMc04140 smc04140,S. meliloti 1021; [3],1.411
same,M (log2 ratio of intensities) SMc04141 gst9,S. meliloti 1021; [3],1.708
